Experimental data taken from patent US20240300908A1, “CHIRAL 3-SULFINYL BENZOIC ACIDS” (BAYER AKTIENGESELLSCHAFT, priority 2021, published 2024).

Assay: HPLC (H3PO4) log P determination
Type: physicochemical

| Structure (SMILES) | chromatographic logP | log P |
| --- | --- | --- |
| C[S@+]([O-])c1c(C(F)(F)F)ccc(C(=O)O)c1Cl [Example 1, 2-chloro-3-[(S)-methylsulfinyl]-4-(trifluoromethyl)benzoic acid] | 1 | – |
| C[S+]([O-])c1c(C(F)(F)F)ccc(C(=O)O)c1Cl (racemic) [Example 1 Step 1, 2-chloro-3-[(S,R)-methylsulfinyl]-4-(trifluoromethyl)benzoic Acid] | – | 0.96 |
